Reference: patent US4620871A (priority 1980, dated 1986)

Tests used:
[1] = tested on: Egri leanyka vine variety; assay: Berry yield and sugar content of vine, Egri leanyka (Example 33); assay type: in vivo
Description: (§1) Vine stands were sprayed with the compositions according to the invention to examine their effects exerted on the berry yield and sugar content. The compositions, diluted with water, were sprayed three times onto the plants. The first treatment was performed prior to flowering, the second one three weeks later, and the third one six weeks after the first one. The dose applied was 2 kg/ha in each of the treatments.
(§2) Comparative tests were also performed with commonly used growth regulating compositions, i.e. CCC (chlorocholine chloride), Ethrel (or Etefon; 2-chloroethylphosphonic acid) and Nevirol (N-phenyl-phthalaiminic acid). The results were compared to those observed with the untreated controls.
(§3) Two vine varieties, Pannonia and Egri leanyka, were involved in the tests.

[2] = tested on: Mexican 226 K wheat variety; assay: Nitrogen contents of grains of Mexican 226 K wheat (Example 31); assay type: in vivo
Description: Two wheat varieties, Libelulla and Mexican 226 K, were utilized in the tests performed under large-parcel field conditions. The sowing seeds were coated with the compositions of the invention according to the wet powder seed dressing technique; a dosis of 2 kg/ha was applied.
The soil was also treated with the compositions according to the invention directly before sowing. A dose of 2 kg/ha was applied.
The grain yields of the wheat varieties, harvested from the treated and control parcels, were measured, and the total nitrogen content and protein nitrogen content of the grains were determined.

leaves of Pinto bean = assay: Protein synthesis, glycine-2-14C incorporation in Pinto bean leaves (Example 19); settings: 18 hours; zeatin 20 ppm, kinetin/benzyladenine 30 ppm, others 200 ppm
Description: The tests were performed on leaves of Pinto bean. The leaf segments were treated with an endogeneous cytokinin (zeatin), synthetic cytokinins (kinetin, benzyladenine) or with the compositions according to the invention, respectively, by floating the leaf segments on the solution of the test substance for 18 hours. Thereafter the leaf segments were exposed to a labelled amino acid (glycine-2-^14 C) for 3 hours, and the incorporation of the amino acid was determined by radiometry.

green parts of maize = assay: Stimulation of plant photolysis, HTO, maize (Example 22); settings: 2 hours
Description: The compositions according to the invention were diluted with distilled water to an active agent content of 500 ppm, and green parts of maize, weighing 200 mg, were treated with the resulting solutions for 2 hours. Thereafter the treated green plant parts were treated for one hour with 10 μCi/50 ml HTO, then the plant parts were frozen with liquid nitorgen, triturated, subjected to chromatographic separation, and the radioactivity of the isolated glycerol aldehyde was determined.
In the control test the green parts of maize were treated with distilled water only.

Tobacco callus = assay: Daily growth, cell number and frequency of mitosis of tobacco callus (Example 13); assay type: cell-based
Description: An untreated culture medium served as control. Tobacco callus was grown on the treated and untreated culture media (incubation period: 3 weeks), and the daily growth, the increase in cell number and the frequency of mitosis were measured according to the method of Skoog.

[3] = tested on: callus isolated from Datura innoxia Mill. roots; assay: Growth of callus isolated from Datura innoxia Mill. roots (Example 15); assay type: cell-based; settings: for percentage growth promoting effect: control = 100, 30240 min
Pinto bean = assay: Stimulation of membrane activity (nitrate uptake), Pinto bean (Example 25); assay type: in vivo
Description: The tests were performed on Pinto bean. The plants were treated with solutions of an endogeneous cytokinin (zeatin), synthetic cytokinins and membraneactive regulators according to the invention, respectively, and the leaves of the plants were analyzed 2 weeks after the treatment.

Wheat = assay: Stimulation of nutrient uptake, labelled phosphate, wheat (Example 24)
Description: The compositions according to the invention were diluted with distilled water to an active agent concentration of 200 ppm, and leaf segments of wheat, maize and pea, weighing 200 mg each, were treated with the solutions. Thereafter the treated green leaf segments were treated for 0.5 hours with a solution of labelled phosphate ions (radioactivity: 30 μCi/50 ml). After this exposition period the treated leaf segments and the untreated controls were processed in a manner known per se to isolate the nucleic acid fractions, and the isolated nucleic acid fractions were dissolved in 6 n ammonium hydroxide solution. Stock solutions were prepared from the resulting solutions, and the amount of labelled phosphate ions present in the stock solutions were measured by liquid scintillation.

grass stands = assay: Crop yield and nitrogen content of grass stand (Example 34); assay type: in vivo; settings: 3 x 2 kg/ha
Description: Tests were performed on grass stands to examine how the compositions according to the invention influence the crop yield, furthermore the total nitrogen content and protein nitrogen content of the crop.
Parcels, 4 m^2 in area, were separated and pegged out on a grass land, and the parcels were sprayed three times with the compositions according to the invention. The liquid compositions were diluted with water prior to spraying, and spraying was repeated in every two weeks. A dose of 2 kg/ha w was applied in each of the treatments.
Thereafter the grass was mowed, the green crop was weighed, and the total nitrogen content and protein nitrogen content of the mowed grass were determined.

Pannonia vine variety = assay: Berry yield and sugar content of vine, Pannonia (Example 33); assay type: in vivo
Description: as §1, §2, §3

maize for silage = assay: Green weight and nitrogen content of maize for silage (Example 28); assay type: in vivo
Description: The tests were performed on parcels 200 m^2 in area. The compositions according to the invention were utilized as solid formulations, and were diluted with water prior to applying them onto the soil. The active agent was applied to the soil in an amount of 2 kg/ha directly before sowing. The green weight of the maize for silage, harvested from the treated and control parcels, was measured, and the dry substance content, crude protein content, real protein content, nitrogen content and carbon content of the green plants were determined.

N=C(N)N.N=C(N)N.Oc1nnc(O)c2ccccc12 [1,4-dihydroxyphthalazine diguanidine salt]
Berry yield ([1]; 3 x 2 kg/ha, control 151.15): 124.23 q/ha
Sugar content ([1]; control 16.7): 16.8%
Sugar yield ([1]; control 18.93): 15.65 q/ha
Protein nitrogen content, stimulation [2]: 28.5%
Total nitrogen content, stimulation [2]: 5.6%
Protein nitrogen content ([2]; control 1.61): 2.07 % of dry substance
Total nitrogen content ([2]; seed 2 kg/ha + soil 2 kg/ha, control 2.12): 2.81 % of dry substance
Stimulation (leaves of Pinto bean): 39.0%
Radioactivity (green parts of maize; 500 ppm, control 4.64): 11.42 dpm/mg dry weight
activation at 500 ppm (green parts of maize; Zea mays): 146%
Cell number/g (Tobacco callus; 10 ppm active agent, 3 weeks): 266.0 10^4 units
Daily growth (Tobacco callus; 10 ppm active agent, 3 weeks): 19.3 mg
activity at 10 ppm (Tobacco callus; Nicotiana tabacum, 504 h, 10 ppm, untreated control = 100): 117%
Dry substance ([3]; with kinetin (2 ppm)): 3.53%
Dry weight of the callus ([3]; with kinetin (2 ppm)): 269.07 mg
Fresh weight of the callus ([3]; with kinetin (2 ppm)): 7.6110 g
Growth, dry weight ([3]; with kinetin (2 ppm)): 24.46
Growth, fresh weight ([3]; with kinetin (2 ppm)): 24.37
Speed of growth ([3]; with kinetin (2 ppm)): 149.20 mg/day
percentage growth promoting effect ([3]; with kinetin): 156%
Dry substance ([3]; without kinetin): 7.14%
Dry weight of the callus ([3]; without kinetin): 66.11 mg
Fresh weight of the callus ([3]; without kinetin): 0.9258 g
Growth, dry weight ([3]; without kinetin): 5.25
Growth, fresh weight ([3]; without kinetin): 2.08
Speed of growth ([3]; without kinetin): 12.77 mg/day
percentage growth promoting effect ([3]; without kinetin): 648%
Protein nitrogen (Pinto bean; 2 weeks, zeatin 20, kinetin/benzyladenine 30, others 200 ppm, control 2.4): 4.1 % of dry weight
Total nitrogen (Pinto bean; 2 weeks, zeatin 20, kinetin/benzyladenine 30, others 200 ppm, control 3.8): 4.8 % of dry weight
Total nitrogen, stimulation (Pinto bean; 200 ppm): 26.3%
Protein nitrogen, stimulation (Pinto bean; zeatin 20, kinetin/benzyladenine 30, others 200 ppm): 70.8%
Protein nitrogen content in % of the total nitrogen content (Pinto bean; zeatin 20, kinetin/benzyladenine 30, others 200 ppm, control 63): 85%
labelled phosphate in nucleic acid fraction (Wheat; 200 ppm, control 17.4): 29.3 1000 cpm/g
activation at 200 ppm (Wheat; Triticum aestivum): 68.5%
Protein nitrogen content (grass stands; control 2.80): 2.62%
Total nitrogen content (grass stands; control 4.22): 3.89%
Crop yield (grass stands; 4 m^2 parcels, control 5.10): 5.35
Sugar content, increase (Pannonia vine variety): 53.8%
Sugar yield, increase (Pannonia vine variety): 62%
Berry yield (Pannonia vine variety; 3 x 2 kg/ha, control 216): 232 q/ha
Sugar content (Pannonia vine variety; control 13.0): 20.0%
Sugar yield (Pannonia vine variety; control 28.08): 46.40 q/ha
Green weight (maize for silage; 2 kg/ha to soil, 200 m^2 parcels, control 365): 374 kg
Total nitrogen content, absolute (maize for silage; 2 kg/ha, control 0.30): 0.40%
Real protein content, absolute (maize for silage; 2 kg/ha, control 1.35): 1.71%
Crude proteins, absolute (maize for silage; 2 kg/ha, control 1.85): 2.52%
Total carbon content, absolute (maize for silage; 2 kg/ha, control 8.99): 9.99%
Air-dry substance, absolute (maize for silage; 2 kg/ha, control 20.57): 22.79%
